According to the NIST ThermoML archive (doi:10.1021/je300339q):

Legend:
[1] = mn = molality of the nth substance listed, in mol/kg; conditions: 101 kPa, Liquid, Direct current cell with electrodes
[2] = 101.33 kPa, Liquid; for viscosity: Capillary tube (Ostwald / Ubbelohde) method; for mass density: Vibrating tube method

CCCCn1cc[n+](CCC)c1.[Br-] [1-butyl-3-propyl-1H-imidazolium bromide] + CO
molar conductivity [S·m2/mol], [1]
Conditions	308 K	313 K	318 K
m1 = 0.005755	0.006546	–	0.00748
m1 = 0.007673	0.006395	0.006815	0.00729
m1 = 0.01023	0.006239	0.006658	0.007119
m1 = 0.01364	0.006083	0.006493	0.006946
m1 = 0.01819	0.005932	0.006333	0.006781
m1 = 0.02425	0.005792	0.006185	0.006627
m1 = 0.03234	0.005668	0.006052	0.006491
m1 = 0.04311	0.005561	0.005936	0.006371
m1 = 0.05749	0.005468	0.005832	0.006257
m1 = 0.07665	0.005372	0.005703	0.006123
m1 = 0.09017	0.005304	0.005611	0.006016
m1 = 0.1002	0.005238	0.00554	0.005923

CC#N [acetonitrile]
[2]
Conditions	mass density [kg/m3]	viscosity [mPa·s]
308.15 K	765.64	0.3125
313.15 K	759.7	0.3042
318.15 K	755.01	0.2903

CCCCn1cc[n+](CCC)c1.[Br-] [1-butyl-3-propyl-1H-imidazolium bromide] + O
molar conductivity [S·m2/mol], [1]
Conditions	308 K	313 K	318 K
m1 = 0.005651	0.012224	0.013136	0.01387
m1 = 0.007536	0.012106	0.013013	0.01376
m1 = 0.01005	0.011972	0.012872	0.013625
m1 = 0.01341	0.011818	0.012712	0.013474
m1 = 0.0179	0.011642	0.012531	0.013305
m1 = 0.02389	0.011441	0.01232	0.013116
m1 = 0.0319	0.011212	0.012091	0.012905
m1 = 0.04262	0.01095	0.011824	0.012669
m1 = 0.05696	0.01065	0.011518	0.012401
m1 = 0.07621	0.010304	0.011165	0.012094
m1 = 0.08987	0.010084	0.01094	0.011898
m1 = 0.1	0.00996	0.0108	0.01177

CO [methanol]
[2]
Conditions	mass density [kg/m3]	viscosity [mPa·s]
308.15 K	777.18	0.4747
313.15 K	772.5	0.444
318.15 K	767.7	0.4185

CCCCn1cc[n+](CCC)c1.[Br-] [1-butyl-3-propyl-1H-imidazolium bromide] + CC#N
molar conductivity [S·m2/mol], [1]
Conditions	308 K	313 K	318 K
m1 = 0.01014	0.00955	0.010075	0.01063
m1 = 0.01352	0.00916	0.009604	0.010128
m1 = 0.01803	0.008751	0.009155	0.009627
m1 = 0.02405	0.008325	0.008691	0.009114
m1 = 0.0275	0.008123	–	–
m1 = 0.03209	0.007883	0.008213	0.008595
m1 = 0.04281	0.007424	0.007724	0.008054
m1 = 0.04875	–	0.007467	0.007807
m1 = 0.05714	0.006944	0.007222	0.007523
m1 = 0.0656	0.006707	0.006956	0.007255
m1 = 0.07628	0.006433	0.006701	0.006968
m1 = 0.08982	0.006124	0.006393	0.006648
m1 = 0.09987	0.00592	0.006199	0.006435
